Patent US8148339B2, “Method of reducing cardiac levels of doxorubicin when given as orotate salt” (Savvipharm Inc, priority 2006, dated 2012)
Structures can show the parent of a compound that is named as a salt.

What was measured:
[1] = tested on: CAKI-1 human renal tumor xenografts; conditions: i.v., equivalent dosages
[2] = cumulative dose; cited from earlier work
in vivo = conditions: male, athymic NCr-nu/nu, mouse, iv, 8 mg/kg
[3] = in vivo; cited from earlier work

concentration at 1 day after the last injection (day 26) (in vivo) [ng/g]	Structure (SMILES)	difference in tumor growth, DOX orotate compared with DOX [1]	total dosage at which irreversible myocardial toxicity leading to congestive heart failure may be encountered [2] [mg/m^2]	AUC [3] [µg·h/mL]
–	COc1cccc2c1C(=O)c1c(O)c3c(c(O)c1C2=O)C[C@@](O)(C(=O)CO)C[C@@H]3O[C@H]1C[C@H](N)[C@H](O)[C@H](C)O1.O=C(O)c1cc(=O)[nH]c(=O)[nH]1 [DOX orotate, doxorubicin orotate]	no significant difference	–	–
7400	COc1cccc2c1C(=O)c1c(O)c3c(c(O)c1C2=O)C[C@@](O)(C(=O)CO)C[C@@H]3O[C@H]1C[C@H](N)[C@H](O)[C@H](C)O1 [DOX, (85, 105)-10-[(3-amino-2,3,6-trideoxy-(c-L-lyxo-hexopyranosyl)oxy]-8-glycolyl 1-7,8,9,10-tetrahydro-6,8,11-trihydroxy-1-methoxy-5,12-naphthacenedione hydrochloride]	–	~550	9900
